The values below come from the AptaBench aptamer set (doi:10.1093/nar/gkaf219).

One may read the Kd as the concentration at which binding is half-saturated. High values mean lower affinity, low ones higher affinity.

Each structure is given as a SMILES string.

Holding throughout (details): 10 mM Tris-HCl, pH 7.4
Experiment [1] concerns DNA aptamer or structured DNA CTTACGACAGTAACGGTGGGTATATGGGATTTATGTTCGTCGTAAG
Experiment [2] has as its system DNA aptamer or structured DNA CTTACGACTTACTTTTGGGTTGTCTGGGTGGGAGGTATGTCGTAAG
Experiment [3] concerns DNA aptamer or structured DNA CTTACGACAGGTTCTGAGGAATCAACGTCGGTGTAGTTGTCGTAAG
The subject of experiment [4] is DNA aptamer or structured DNA CTTACGACCTAAGGGTCTGGAGTGGTTGTTATACGCTGGTCGTAAG
The test system of experiment [5] is DNA aptamer or structured DNA CTTACGACCATGGGTGTTTGCACTAAGTCCGGTTCTTGGTCGTAAG
Experiment [6] concerns DNA aptamer or structured DNA GGGACGACTAGTGCCTTCGCGCTGTGCGGGAATCCGGTTCTGTCGTCCC
Experiment [7] has as its system DNA aptamer or structured DNA GGGACGACTAGCCGTGGCGTTGTTCGAGTGCAGCGAGTAGTCGTCCC
Experiment [8] concerns DNA aptamer or structured DNA CTTACGACGACCTATTGGGGGTAGTTATAGTTGGGTGAGTCGTAAG
In experiment [9] the test system is DNA aptamer or structured DNA CTTACGACTAGTTCTGAGGAATCAACGTCGGTGTAGTTGTCGTAAG
Experiment [10] has as its system DNA aptamer or structured DNA CTTACGACGACCTATTGGGGGGTAGTTATAGTTGGGTGAGTCGTAAG
The subject of experiment [11] is DNA aptamer or structured DNA GGGACGACGGGGGGCTTTAGGGTGTAGGAGTGGGGTGAGTCGTCCC
Experiment [12] has as its system DNA aptamer or structured DNA GGGACGACGGTTGGCATTGGGTCGGGTGTGGGTGCGGCGTCGTCCC
Experiment [13] concerns DNA aptamer or structured DNA GGGACGACAGGGCACGTCTCGGCATCGAGGGTTTCGCGGTCGTCCC
The test system of experiment [14] is DNA aptamer or structured DNA GGGACGACGGGGGGAGTAATGTTTGTGTGGGGGAGCCGGTCGTCCC
The subject of experiment [15] is DNA aptamer or structured DNA GGGACGACTAGCCCTAGCGTTGTTCGAGTCCATGAGTAGTCGTCCC
Wherever binding call is given: call rule not given here.

With `COC(=O)[C@@H]1C2CCC(C[C@@H]1OC(=O)c1ccccc1)N2C` (stereo not given in full), the Kd was determined as 0.282 µM in [1]; 0.249 µM in experiment [2]; 0.022 µM in [3]; 0.218 µM in experiment [4]; 0.353 µM in [8]; 0.033 µM in [9]. In addition, the Kd in [10] is 0.102 µM. In addition, the binding call in experiment [5] is given as “no binding”; in experiment [6], “no binding”; in [7] it was “no binding”; in experiment [11], “no binding”; in experiment [12] it was “binds”; in experiment [13], “no binding”. Besides, the binding call in experiment [14] and in experiment [15] was “no binding” each time.
